# PubChem BioAssay AID2060494 (Molecular Pharmacology Branch, DTP, NCI, 2025)
# System: 435261-313-R-J1-PDC complex spheroid viability
# Assay: Anticancer human tumor 435261-313-R-J1-PDC patient-derived colon adenocarcinoma cell line growth inhibition [GQUAD]
# Conditions: for IC50: curve of first compound; for viability, T/C: stronger effect = lower value
# Procedure, shortened: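 Viability of tumor cells grown as complex spheroids with endothelial and stromal cells, exposed to drug combinations. Top concentration at or near clinical Cmax (else 10 microM), diluted in half-log increments.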
# [1] = second compound 0.0316 µM, first compound 0.0316 µM
# [2] = second compound 0.0316 µM, first compound 0.1 µM
# [3] = second compound 0.0316 µM, first compound 0.316 µM
# [4] = second compound 0.0316 µM, first compound 1 µM
# [5] = second compound 0.0316 µM, first compound 3.16 µM
# [6] = second compound 0.0316 µM, first compound 10 µM
# [7] = second compound 0.1 µM, first compound 0.0316 µM
# [8] = second compound 0.1 µM, first compound 0.1 µM
# [9] = second compound 0.1 µM, first compound 0.316 µM
# [10] = second compound 0.1 µM, first compound 1 µM
# [11] = second compound 0.1 µM, first compound 3.16 µM
# [12] = second compound 0.1 µM, first compound 10 µM
# [13] = second compound 0.316 µM, first compound 0.0316 µM
# [14] = second compound 0.316 µM, first compound 0.1 µM
# [15] = second compound 0.316 µM, first compound 0.316 µM
# [16] = second compound 0.316 µM, first compound 1 µM
# [17] = second compound 0.316 µM, first compound 3.16 µM
# [18] = second compound 0.316 µM, first compound 10 µM
# [19] = second compound 1 µM, first compound 0.0316 µM
# [20] = second compound 1 µM, first compound 0.1 µM
# [21] = second compound 1 µM, first compound 0.316 µM
# [22] = second compound 1 µM, first compound 1 µM
# [23] = second compound 1 µM, first compound 3.16 µM
# [24] = second compound 1 µM, first compound 10 µM
# [25] = second compound 3.16 µM, first compound 0.0316 µM
# [26] = second compound 3.16 µM, first compound 0.1 µM
# [27] = second compound 3.16 µM, first compound 0.316 µM
# [28] = second compound 3.16 µM, first compound 1 µM
# [29] = second compound 3.16 µM, first compound 3.16 µM
# [30] = second compound 3.16 µM, first compound 10 µM
# [31] = second compound 10 µM, first compound 0.0316 µM
# [32] = second compound 10 µM, first compound 0.1 µM
# [33] = second compound 10 µM, first compound 0.316 µM
# [34] = second compound 10 µM, first compound 1 µM
# [35] = second compound 10 µM, first compound 3.16 µM
# [36] = second compound 10 µM, first compound 10 µM
# 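Also: spheroids exposed to the agents for seven days before readout.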
# 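For viability, T/C in this document: percent of vehicle control viability with DMSO wells as 100%.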
structure (smiles),measurement,setting,value
COc1cc(C2c3cc4c(cc3C(OC3OC5COC(C)OC5C(O)C3O)C3COC(=O)C23)OCO4)cc(OC)c1O (stereo not drawn) + CN(C)c1ccc(Nc2c3ccc(NC(=O)CCN4CCCC4)cc3nc3cc(NC(=O)CCN4CCCC4)ccc23)cc1,IC50,second compound 0.0316 µM,> 10000 nM
same,IC50,second compound 0.1 µM,> 10000 nM
same,IC50,second compound 0.316 µM,> 10000 nM
same,IC50,second compound 1 µM,> 10000 nM
same,IC50,second compound 3.16 µM,> 10000 nM
same,IC50,second compound 10 µM,70.4 nM
same,"viability, T/C",[1],93.5%
same,"viability, T/C",[2],117%
same,"viability, T/C",[3],77.8%
same,"viability, T/C",[4],74.4%
same,"viability, T/C",[5],75.9%
same,"viability, T/C",[6],61.2%
same,"viability, T/C",[7],81.8%
same,"viability, T/C",[8],87.3%
same,"viability, T/C",[9],74.8%
same,"viability, T/C",[10],80.7%
same,"viability, T/C",[11],82.1%
same,"viability, T/C",[12],74.1%
same,"viability, T/C",[13],100%
same,"viability, T/C",[14],95.2%
same,"viability, T/C",[15],65.1%
same,"viability, T/C",[16],71%
same,"viability, T/C",[17],91.6%
same,"viability, T/C",[18],74.4%
same,"viability, T/C",[19],78.9%
same,"viability, T/C",[20],91.4%
same,"viability, T/C",[21],74.3%
same,"viability, T/C",[22],76.4%
same,"viability, T/C",[23],71.1%
same,"viability, T/C",[24],57.1%
same,"viability, T/C",[25],62.6%
same,"viability, T/C",[26],69.2%
same,"viability, T/C",[27],65.5%
same,"viability, T/C",[28],55.2%
same,"viability, T/C",[29],62.4%
same,"viability, T/C",[30],45.7%
same,"viability, T/C",[31],63%
same,"viability, T/C",[32],42.4%
same,"viability, T/C",[33],37.9%
same,"viability, T/C",[34],29%
same,"viability, T/C",[35],27.1%
same,"viability, T/C",[36],26.4%
Cc1cccc(N(C)C(=O)C2C(O)CCN2c2nc(C)cc(C(F)(F)F)c2C#N)c1 (stereo not drawn) + Cc1cnc(CNC(=O)c2c(=O)c3ccc(N4CCCN(C)CC4)nc3n3c2sc2ccccc23)cn1,IC50,second compound 0.0316 µM,> 10000 nM
same,IC50,second compound 0.1 µM,> 10000 nM
same,IC50,second compound 0.316 µM,> 10000 nM
same,IC50,second compound 1 µM,< 31.6 nM
same,IC50,second compound 3.16 µM,< 31.6 nM
same,IC50,second compound 10 µM,< 31.6 nM
same,"viability, T/C",[1],72.9%
same,"viability, T/C",[2],76.9%
same,"viability, T/C",[3],73.3%
same,"viability, T/C",[4],63.7%
same,"viability, T/C",[5],75.8%
same,"viability, T/C",[6],81.6%
same,"viability, T/C",[7],59.2%
same,"viability, T/C",[8],66%
same,"viability, T/C",[9],52.2%
same,"viability, T/C",[10],56.3%
same,"viability, T/C",[11],61.5%
same,"viability, T/C",[12],62.3%
same,"viability, T/C",[13],49.1%
same,"viability, T/C",[14],52.5%
same,"viability, T/C",[15],65.3%
same,"viability, T/C",[16],51.7%
same,"viability, T/C",[17],51.1%
same,"viability, T/C",[18],53%
same,"viability, T/C",[19],42%
same,"viability, T/C",[20],53%
same,"viability, T/C",[21],47.9%
same,"viability, T/C",[22],51.6%
same,"viability, T/C",[23],48.6%
same,"viability, T/C",[24],45.3%
same,"viability, T/C",[25],16.1%
same,"viability, T/C",[26],21%
same,"viability, T/C",[27],17%
same,"viability, T/C",[28],17.3%
same,"viability, T/C",[29],12.8%
same,"viability, T/C",[30],9.97%
same,"viability, T/C",[31],0.21%
same,"viability, T/C",[32],5.23%
same,"viability, T/C",[33],6.24%
same,"viability, T/C",[34],0.26%
same,"viability, T/C",[35],0.33%
same,"viability, T/C",[36],0.25%
C=CCn1c(=O)c2cnc(Nc3ccc(N4CCN(C)CC4)cc3)nc2n1-c1cccc(C(C)(C)O)n1 + Cc1cnc(CNC(=O)c2c(=O)c3ccc(N4CCCN(C)CC4)nc3n3c2sc2ccccc23)cn1,IC50,second compound 0.0316 µM,> 10000 nM
same,IC50,second compound 0.1 µM,266 nM
same,IC50,second compound 0.316 µM,2250 nM
same,IC50,second compound 1 µM,< 31.6 nM
same,IC50,second compound 3.16 µM,< 31.6 nM
same,IC50,second compound 10 µM,< 31.6 nM
same,"viability, T/C",[1],67.6%
same,"viability, T/C",[2],59.2%
same,"viability, T/C",[3],59.4%
same,"viability, T/C",[4],57%
same,"viability, T/C",[5],52.7%
same,"viability, T/C",[6],51.3%
same,"viability, T/C",[7],61.3%
same,"viability, T/C",[8],56.1%
same,"viability, T/C",[9],44.4%
same,"viability, T/C",[10],47.8%
same,"viability, T/C",[11],54.4%
same,"viability, T/C",[12],42.4%
same,"viability, T/C",[13],54%
same,"viability, T/C",[14],59.2%
same,"viability, T/C",[15],49.9%
same,"viability, T/C",[16],52.9%
same,"viability, T/C",[17],49.6%
same,"viability, T/C",[18],36.8%
same,"viability, T/C",[19],34.9%
same,"viability, T/C",[20],39.6%
same,"viability, T/C",[21],36.2%
same,"viability, T/C",[22],39.1%
same,"viability, T/C",[23],41.2%
same,"viability, T/C",[24],30.5%
same,"viability, T/C",[25],14%
same,"viability, T/C",[26],4.69%
same,"viability, T/C",[27],8.48%
same,"viability, T/C",[28],4.99%
same,"viability, T/C",[29],5.92%
same,"viability, T/C",[30],0.17%
same,"viability, T/C",[31],0.17%
same,"viability, T/C",[32],0.17%
same,"viability, T/C",[33],0.19%
same,"viability, T/C",[34],0.16%
same,"viability, T/C",[35],0.19%
same,"viability, T/C",[36],0.15%
COc1ncnc(C2CC2)c1-c1ncc2cnn(Cc3ccc(-c4nc(C(F)(F)F)cn4C(C)C)cc3)c2n1 + Cc1cnc(CNC(=O)c2c(=O)c3ccc(N4CCCN(C)CC4)nc3n3c2sc2ccccc23)cn1,IC50,second compound 0.0316 µM,> 10000 nM
same,IC50,second compound 0.1 µM,> 10000 nM
same,IC50,second compound 0.316 µM,< 31.6 nM
same,IC50,second compound 1 µM,< 31.6 nM
same,IC50,second compound 3.16 µM,< 31.6 nM
same,IC50,second compound 10 µM,< 31.6 nM
same,"viability, T/C",[1],63.8%
same,"viability, T/C",[2],55.6%
same,"viability, T/C",[3],61.9%
same,"viability, T/C",[4],55.2%
same,"viability, T/C",[5],65.9%
same,"viability, T/C",[6],55.6%
same,"viability, T/C",[7],65.5%
same,"viability, T/C",[8],59.7%
same,"viability, T/C",[9],51.1%
same,"viability, T/C",[10],53.5%
same,"viability, T/C",[11],61.9%
same,"viability, T/C",[12],53.8%
same,"viability, T/C",[13],48.4%
same,"viability, T/C",[14],53.7%
same,"viability, T/C",[15],52.4%
same,"viability, T/C",[16],48.5%
same,"viability, T/C",[17],55.1%
same,"viability, T/C",[18],54.3%
same,"viability, T/C",[19],32.6%
same,"viability, T/C",[20],40.8%
same,"viability, T/C",[21],40.7%
same,"viability, T/C",[22],31.8%
same,"viability, T/C",[23],42.1%
same,"viability, T/C",[24],37.2%
same,"viability, T/C",[25],17.9%
same,"viability, T/C",[26],10.5%
same,"viability, T/C",[27],17.6%
same,"viability, T/C",[28],8.94%
same,"viability, T/C",[29],15.1%
same,"viability, T/C",[30],17.2%
same,"viability, T/C",[31],0.18%
same,"viability, T/C",[32],0.17%
same,"viability, T/C",[33],0.23%
same,"viability, T/C",[34],0.19%
same,"viability, T/C",[35],0.2%
same,"viability, T/C",[36],0.18%
